Assay results from PubChem BioAssay AID1963973 (Molecular Pharmacology Branch, DTP, NCI, 2024).
Values joined by “and” are separate entries in the source; they are usually repeats but may differ in a detail not shown here. Equal values may be shown once. Values belong to the compound of their own block, whether it stands above or below them.

Tested on: 883617-216-R-J1-PDC tumor spheroids, viability
Assay: Anticancer human tumor 883617-216-R-J1-PDC patient-derived bladder carcinoma cell line growth inhibition [PI3K]
Conditions: spheroids with HUVEC and MSC; for viability, T/C: stronger effect = lower value
From the text: Combinatorial screen of targeted agents with the PI3K inhibitors inavolisib, alpelisib, duvelisib, and copanlisib in multi-cell type tumor spheroids
A high-throughput screen of multi-cell type tumor spheroids was designed to identify active combinations of targeted small molecules and PI3K pathway inhibitors. Complex spheroids include a stromal component modeled by human endothelial cells (HUVEC) and fibroblasts modeled by human mesenchymal stem cells (MSCs). The concentration ranges selected for each drug and investigational agent were based upon clinically achievable concentrations if the clinical Cmax of the agent was known.
Compounds. The drugs and investigational agents: inavolisib (NSC800729), alpelisib (NSC765974), duvelisib (NSC772469), copanlisib (NSC816437), ipatasertib (NSC767898), afuresertib (NSC778305), talazoparib (NSC767125), sapanisertib (NSC764658), selumetinib (NSC741078), tovorafenib (DAY101, NSC766906), vemurafenib (NSC761431), ravoxertinib (NSC781343), sotorasib (NSC818433), MRTX1133 (NSC 836407), abemaciclib (NSC 768073), palbociclib (NSC758247), venetoclax (NSC 766270), SY5609 (NSC837396), enzalutamide (NSC755605), and darolutamide (NSC825331), were obtained from the National Cancer Institute (NCI) Developmental Therapeutics Program Chemical Repository. The FDA-approved anticancer drug set is available from the NCI Developmental Therapeutics Program. […] The stock solutions were prepared in dimethyl sulfoxide (DMSO, Sigma-Aldrich, St. Louis, MO, cat. D2650) at 800-fold the tested concentration and stored at -70 degrees C prior to their use. All drugs and investigational agents were tested over a range starting from a high concentration at or near the clinical Cmax and decreasing in half-log increments. If the clinical Cmax for an agent had not been determined, the highest concentration tested was 10 microM.
Cell Culture. All cells were maintained in an incubator at 37 degrees C and 5% CO2 with 95% humidity. The PDC lines were cultured according to standard operating procedures established by the NCI PDMR (https://pdmr.cancer.gov/sops/default.htm). All PDCs were thawed and cultured in Matrigel-coated flasks prepared with a working solution of 1X Ham's F-12 nutrient mix, without supplementation (Invitrogen, Waltham, MA, cat. 11765054), 100 U/mL penicillin-streptomycin (Invitrogen, cat. 15140122), and 2.5% Matrigel (Corning Inc., Corning, NY, cat. 354248) for the first three passages. The 354836-022-R-J1-PDC, 475296-252-R-J1-PDC, and 997726-040-R-J2-PDC lines were cultured in 6A media, which includes advanced DMEM/F-12 (Thermo Fisher Scientific, cat. 12634028), 10 mM HEPES (Thermo Fisher Scientific, cat. 15630080), 1X GlutaMAX supplement (Thermo Fisher Scientific, cat. 35050061), 0.1 mg/mL primocin (InvivoGen, San Diego, CA, cat. ant-pm-2), 10% defined fetal bovine serum, heat inactivated (HyClone Laboratories Inc., Logan, UT, cat. SH30070.03HI), 50% L-WRN conditioned media (ATCC, cat. CRL-3276), 1.25 mM N-Acetyl-L-cysteine (Sigma-Aldrich, cat. A9165), 10 mM nicotinamide (Sigma-Aldrich, cat. N0636), 1X B-27 supplement (Thermo Fisher Scientific, cat. 17504044), 1X N-2 supplement (Thermo Fisher Scientific, cat. 17502048), and 10 microM Y-27632 dihydrochloride (Tocris Bioscience, Bristol, United Kingdom, cat. 1254). The 624824-186-R-J2-PDC line was cultured in 6C/Colon 1B media, which includes all 6A media components plus 50 ng/mL human EGF recombinant protein (Thermo Fisher Scientific, cat. PHG0311). […]

[1] = curve of first compound, second compound 0.00316 µM
[2] = curve of first compound, second compound 0.01 µM
[3] = curve of first compound, second compound 0.0316 µM
[4] = curve of first compound, second compound 0.1 µM
[5] = curve of first compound, second compound 0.316 µM
[6] = curve of first compound, second compound 1 µM
[7] = second compound 0.00316 µM, first compound 0.0316 µM
[8] = second compound 0.00316 µM, first compound 0.1 µM
[9] = second compound 0.00316 µM, first compound 0.316 µM
[10] = second compound 0.00316 µM, first compound 1 µM
[11] = second compound 0.01 µM, first compound 0.0316 µM
[12] = second compound 0.01 µM, first compound 0.1 µM
[13] = second compound 0.01 µM, first compound 0.316 µM
[14] = second compound 0.01 µM, first compound 1 µM
[15] = second compound 0.0316 µM, first compound 0.0316 µM
[16] = second compound 0.0316 µM, first compound 0.1 µM
[17] = second compound 0.0316 µM, first compound 0.316 µM
[18] = second compound 0.0316 µM, first compound 1 µM
[19] = second compound 0.1 µM, first compound 0.0316 µM
[20] = second compound 0.1 µM, first compound 0.1 µM
[21] = second compound 0.1 µM, first compound 0.316 µM
[22] = second compound 0.1 µM, first compound 1 µM
[23] = second compound 0.316 µM, first compound 0.0316 µM
[24] = second compound 0.316 µM, first compound 0.1 µM
[25] = second compound 0.316 µM, first compound 0.316 µM
[26] = second compound 0.316 µM, first compound 1 µM
[27] = second compound 1 µM, first compound 0.0316 µM
[28] = second compound 1 µM, first compound 0.1 µM
[29] = second compound 1 µM, first compound 0.316 µM
[30] = second compound 1 µM, first compound 1 µM
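Also: spheroids exposed to agents for 7 days before the viability read.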

Compound: CC(Nc1ncnc2nc[nH]c12)c1cc2cccc(Cl)c2c(=O)n1-c1ccccc1 (configuration not stated)
viability, T/C (compound 0.0316 µM): 98.3% [middle of 8 runs]
viability, T/C (compound 0.1 µM): 95.9% [middle of 8 runs]
viability, T/C (compound 0.316 µM): 94.8% [middle of 8 runs]
viability, T/C (compound 1 µM): 85.6% [middle of 8 runs]
viability, T/C (compound 3.16 µM): 66.2% [middle of 8 runs]
viability, T/C (compound 10 µM): 50.7% [middle of 8 runs]

IC50 [1]: 234 nM
IC50 [2]: 35.6 nM
IC50 [3]: < 3.16 nM
IC50 [4]: < 3.16 nM
IC50 [5]: < 3.16 nM
IC50 [6]: < 3.16 nM
Compound: CCN1CCN(Cc2ccc(Nc3ncc(F)c(-c4cc(F)c5nc(C)n(C(C)C)c5c4)n3)nc2)CC1 + COc1c(OCCCN2CCOCC2)ccc2c3n(c(=NC(=O)c4cnc(N)nc4)nc12)CCN3
viability, T/C (second compound 0.00316 µM, first compound 0.00316 µM): 91.3%
viability, T/C (second compound 0.00316 µM, first compound 0.01 µM): 83.5%
viability, T/C [7]: 70.2%
viability, T/C [8]: 57.2%
viability, T/C [9]: 47.6%
viability, T/C [10]: 42.3%
viability, T/C (second compound 0.01 µM, first compound 0.00316 µM): 65.5%
viability, T/C (second compound 0.01 µM, first compound 0.01 µM): 62.2%
viability, T/C [11]: 51.4%
viability, T/C [12]: 40.4%
viability, T/C [13]: 40.7%
viability, T/C [14]: 38.8%
viability, T/C (second compound 0.0316 µM, first compound 0.00316 µM): 36.3%
viability, T/C (second compound 0.0316 µM, first compound 0.01 µM): 31.1%
viability, T/C [15]: 24.8%
viability, T/C [16]: 25.9%
viability, T/C [17]: 24%
viability, T/C [18]: 21.5%
viability, T/C (second compound 0.1 µM, first compound 0.00316 µM): 14.6%
viability, T/C (second compound 0.1 µM, first compound 0.01 µM): 12.9%
viability, T/C [19]: 18.3%
viability, T/C [20]: 11.5%
viability, T/C [21]: 12.6%
viability, T/C [22]: 11.8%
viability, T/C (second compound 0.316 µM, first compound 0.00316 µM): 4.77%
viability, T/C (second compound 0.316 µM, first compound 0.01 µM): 4.9%
viability, T/C [23]: 4.63%
viability, T/C [24]: 4.67%
viability, T/C [25]: 4.91%
viability, T/C [26]: 6.41%
viability, T/C (second compound 1 µM, first compound 0.00316 µM): 2.94%
viability, T/C (second compound 1 µM, first compound 0.01 µM): 3%
viability, T/C [27]: 3.07%
viability, T/C [28]: 3.49%
viability, T/C [29]: 4.44%
viability, T/C [30]: 6.38%

IC50 (curve of compound): > 10000 nM and 8220 nM
Compound: Cn1nccc1Nc1nccc(-c2ccn(C(CO)c3ccc(Cl)c(F)c3)c(=O)c2)n1 (configuration not stated)
viability, T/C (compound 0.0316 µM): 93.7% [middle of 4 runs]
viability, T/C (compound 0.1 µM): 86.5% [middle of 4 runs]
viability, T/C (compound 0.316 µM): 87.2% [middle of 4 runs]
viability, T/C (compound 1 µM): 79.5% [middle of 4 runs]
viability, T/C (compound 3.16 µM): 65.8% [middle of 4 runs]
viability, T/C (compound 10 µM): 58.5% [middle of 4 runs]

IC50 [1]: > 10000 nM
IC50 [2]: > 10000 nM
IC50 [3]: > 10000 nM
IC50 [4]: < 31.6 nM
IC50 [5]: < 31.6 nM
IC50 [6]: < 31.6 nM
Compound: CNC(=O)c1ccc(N2C(=S)N(c3ccc(C#N)c(C(F)(F)F)c3)C(=O)C2(C)C)cc1F + CC(Nc1ccc2c(c1)OCCn1cc(N3C(=O)OCC3C(F)F)nc1-2)C(N)=O
viability, T/C [7]: 94.3%
viability, T/C [8]: 78.7%
viability, T/C [9]: 97.5%
viability, T/C [10]: 104%
viability, T/C (second compound 0.00316 µM, first compound 3.16 µM): 82.2%
viability, T/C (second compound 0.00316 µM, first compound 10 µM): 62.4%
viability, T/C [11]: 90.3%
viability, T/C [12]: 74.3%
viability, T/C [13]: 82.6%
viability, T/C [14]: 97.5%
viability, T/C (second compound 0.01 µM, first compound 3.16 µM): 82.3%
viability, T/C (second compound 0.01 µM, first compound 10 µM): 63.4%
viability, T/C [15]: 61.1%
viability, T/C [16]: 62.5%
viability, T/C [17]: 59%
viability, T/C [18]: 75.8%
viability, T/C (second compound 0.0316 µM, first compound 3.16 µM): 79.8%
viability, T/C (second compound 0.0316 µM, first compound 10 µM): 44.8%
viability, T/C [19]: 35.2%
viability, T/C [20]: 39.1%
viability, T/C [21]: 44.9%
viability, T/C [22]: 41.9%
viability, T/C (second compound 0.1 µM, first compound 3.16 µM): 42.5%
viability, T/C (second compound 0.1 µM, first compound 10 µM): 27.9%
viability, T/C [23]: 20.5%
viability, T/C [24]: 23.9%
viability, T/C [25]: 21.2%
viability, T/C [26]: 26.2%
viability, T/C (second compound 0.316 µM, first compound 3.16 µM): 48.8%
viability, T/C (second compound 0.316 µM, first compound 10 µM): 19.3%
viability, T/C [27]: 16.9%
viability, T/C [28]: 11.8%
viability, T/C [29]: 16.3%
viability, T/C [30]: 19.5%
viability, T/C (second compound 1 µM, first compound 3.16 µM): 17.2%
viability, T/C (second compound 1 µM, first compound 10 µM): 12.3%
